# Measurements published in PubChem BioAssay AID248 (DTP/NCI, 2004).
# Several values for one entry are separate records, joined by “and”; a condition that tells them apart may be missing. Equal entries are not always repeated. Toxic doses and inconclusive results are not listed.
# Test system: L1210 leukemia ip in BDF1 mice, survival T/C
# Assay: NCI In Vivo Anticancer Drug Screen. Data for tumor model L1210 Leukemia (intraperitoneal) in B6D2F1 (BDF1) mice
# Conditions: endpoint: mean survival time, higher = longer survival
# In short: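 Value reflects the ratio of survival in compound-treated mice to survival in vehicle-treated controls, with both groups carrying the same transplanted tumor.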
# [1] = dose: 100.0 mg/kg/injection, schedule: Q01DX009 (ip), vehicle: Klucel (hydroxypropylcellulose) (HPC)
# [2] = dose: 200.0 mg/kg/injection, schedule: Q01DX009 (ip), vehicle: Klucel (hydroxypropylcellulose) (HPC)
# [3] = dose: 400.0 mg/kg/injection, schedule: Q01DX009 (ip), vehicle: Klucel (hydroxypropylcellulose) (HPC)
# [4] = dose: 100.0 mg/kg/injection, schedule: Q04DX003 (ip), vehicle: saline with Tween-80
# [5] = dose: 50.0 mg/kg/injection, schedule: Q01DX001 (ip), vehicle: carboxymethylcellulose (CMC)
# [6] = dose: 100.0 mg/kg/injection, schedule: Q01DX001 (ip), vehicle: carboxymethylcellulose (CMC)
# [7] = dose: 400.0 mg/kg/injection, schedule: Q01DX001 (ip), vehicle: carboxymethylcellulose (CMC)
# [8] = dose: 50.0 mg/kg/injection, schedule: Q01DX009 (ip), vehicle: Klucel (hydroxypropylcellulose) (HPC)
# [9] = dose: 100.0 mg/kg/injection, schedule: Q04DX003 (ip), vehicle: Klucel (hydroxypropylcellulose) (HPC)
# [10] = dose: 200.0 mg/kg/injection, schedule: Q04DX003 (ip), vehicle: Klucel (hydroxypropylcellulose) (HPC)
# [11] = dose: 400.0 mg/kg/injection, schedule: Q04DX003 (ip), vehicle: Klucel (hydroxypropylcellulose) (HPC)
# [12] = dose: 100.0 mg/kg/injection, schedule: Q04DX002 (ip), vehicle: Klucel (hydroxypropylcellulose) (HPC)
# [13] = dose: 200.0 mg/kg/injection, schedule: Q04DX002 (ip), vehicle: Klucel (hydroxypropylcellulose) (HPC)
# [14] = dose: 400.0 mg/kg/injection, schedule: Q01DX001 (ip), vehicle: saline
# [15] = dose: 200.0 mg/kg/injection, schedule: Q01DX001 (ip), vehicle: carboxymethylcellulose (CMC)
# [16] = dose: 100.0 mg/kg/injection, schedule: Q01DX001 (ip), vehicle: saline
# [17] = dose: 200.0 mg/kg/injection, schedule: Q01DX001 (ip), vehicle: saline
# [18] = dose: 50.0 mg/kg/injection, schedule: Q04DX002 (ip), vehicle: saline with Tween-80
compound,measurement,setting,value
COc1cccc2c1C(=O)c1c(O)c3c(c(O)c1C2=O)C[C@@](O)(C(=O)COC(=O)Cc1ccccc1)C[C@@H]3OC1CC(N)C(O)C(C)O1 (some centres undefined),T/C,"dose: 1.3 mg/kg/injection, schedule: Q01DX009 (ip), vehicle: saline",152 % of control
same,T/C,"dose: 2.0 mg/kg/injection, schedule: Q01DX009 (ip), vehicle: saline",167 % of control
same,T/C,"dose: 3.0 mg/kg/injection, schedule: Q01DX009 (ip), vehicle: saline",173 % of control
same,T/C,"dose: 6.8 mg/kg/injection, schedule: Q01DX009 (ip), vehicle: saline with Tween-80",104 % of control
CC(=O)c1c(O)cc(C)c(Cl)c1C,T/C,[1],94 % of control
same,T/C,[2],100 % of control
same,T/C,[3],103 % of control
COc1cccc(OC)c1OCCCN1CCOCC1,T/C,"dose: 25.0 mg/kg/injection, schedule: Q04DX003 (ip), vehicle: saline with Tween-80",99 % of control
same,T/C,"dose: 50.0 mg/kg/injection, schedule: Q04DX003 (ip), vehicle: saline with Tween-80",100 % of control
same,T/C,[4],94 % of control
Oc1cc2c(O)cccc2c2ccccc12,T/C,[4],92 % of control
same,T/C,"dose: 200.0 mg/kg/injection, schedule: Q04DX003 (ip), vehicle: saline with Tween-80",90 % of control
Cc1ccc(C2=CCCCC2)cc1,T/C,[5],96 % of control
same,T/C,[6],96 % of control
same,T/C,[7],94 % of control
Cc1nc2[nH][nH]c(=O)c2nc1C,T/C,[8],94 % of control
same,T/C,[1],100 % of control
same,T/C,[9],97 % of control
same,T/C,[2],94 % of control
same,T/C,[10],105 % of control
same,T/C,[11],102 % of control
CCC(C)n1c(C)cc(=O)n1C(C)CC (centres undefined),T/C,"dose: 15.0 mg/kg/injection, schedule: Q01DX001 (ip), vehicle: saline",101 % of control
same,T/C,"dose: 30.0 mg/kg/injection, schedule: Q01DX001 (ip), vehicle: saline",97 % of control
same,T/C,"dose: 60.0 mg/kg/injection, schedule: Q01DX001 (ip), vehicle: saline",101 % of control
O=[N+]([O-])/C=C/c1ccc(Br)cc1,T/C,"dose: 75.0 mg/kg/injection, schedule: Q01DX001 (ip), vehicle: saline",95 % of control
CC(=O)Nc1ccc(NC(=O)Nc2ccc(F)cc2)cc1,T/C,[12],108 % of control
same,T/C,[13],118 % of control
same,T/C,"dose: 400.0 mg/kg/injection, schedule: Q04DX002 (ip), vehicle: Klucel (hydroxypropylcellulose) (HPC)",105 % of control
O=C(Nc1ccccc1)Sc1ccccc1,T/C,"dose: 62.5 mg/kg/injection, schedule: Q01DX001 (ip), vehicle: Klucel (hydroxypropylcellulose) (HPC)",97 % of control
O=[N+]([O-])c1ccc(/C=N/Nc2c3ccccc3nc3ccccc23)cc1,T/C,[14],94 % of control
CCCCCOB(OCCCCC)OCCCCC,T/C,[5],93 % of control
same,T/C,[6],95 % of control
same,T/C,[15],93 % of control
same,T/C,[7],98 % of control
O=c1[nH]c2ncccc2c(=O)n1O,T/C,"dose: 50.0 mg/kg/injection, schedule: Q01DX001 (ip), vehicle: saline",96 % of control
same,T/C,[16],100 % of control
same,T/C,[1],96 % of control
same,T/C,[17],96 % of control
same,T/C,[2],98 % of control
same,T/C,[3],94 % of control
C1=C(c2ccccc2)C(c2ccccc2)c2ccccc21 (centres undefined),T/C,"dose: 12.5 mg/kg/injection, schedule: Q04DX002 (ip), vehicle: saline with Tween-80",90 % of control
same,T/C,"dose: 25.0 mg/kg/injection, schedule: Q04DX002 (ip), vehicle: saline with Tween-80",98 % of control
same,T/C,[18],90 % of control
same,T/C,"dose: 400.0 mg/kg/injection, schedule: Q04DX003 (ip), vehicle: saline with Tween-80",90 % of control
ClCCCNCc1ccc(-c2c3ccccc3cc3c2ccc2ccccc23)cc1,T/C,[6],95 % of control
same,T/C,[15],101 % of control
CC(=O)NCCOc1ccc(N)cc1Cl,T/C,"dose: 100.0 mg/kg/injection, schedule: Q04DX003 (ip), vehicle: saline",94 % of control
same,T/C,"dose: 200.0 mg/kg/injection, schedule: Q04DX003 (ip), vehicle: saline",92 % of control
same,T/C,"dose: 400.0 mg/kg/injection, schedule: Q04DX003 (ip), vehicle: saline",91 % of control
O=[N+]([O-])c1cc(Br)c(Br)cc1Br,T/C,"dose: 100.0 mg/kg/injection, schedule: Q01DX001 (ip), vehicle: Klucel (hydroxypropylcellulose) (HPC)",106 % of control
same,T/C,[1],97 % of control
same,T/C,"dose: 200.0 mg/kg/injection, schedule: Q01DX001 (ip), vehicle: Klucel (hydroxypropylcellulose) (HPC)",101 % of control
same,T/C,[2],96 % of control
same,T/C,"dose: 400.0 mg/kg/injection, schedule: Q01DX001 (ip), vehicle: Klucel (hydroxypropylcellulose) (HPC)",101 % of control
O=S(=O)(O)C(Nc1ccccn1)c1ccccc1 (centres undefined),T/C,"dose: 100.0 mg/kg/injection, schedule: Q01DX001 (ip), vehicle: saline with Tween-80",104 % of control
CCOC(=O)C1N=C(c2ccccc2)OC1c1ccccc1 (centres undefined),T/C,"dose: 50.0 mg/kg/injection, schedule: Q01DX009 (ip), vehicle: saline with Tween-80",94 % of control
same,T/C,"dose: 100.0 mg/kg/injection, schedule: Q01DX009 (ip), vehicle: saline with Tween-80",94 % of control
same,T/C,"dose: 200.0 mg/kg/injection, schedule: Q01DX009 (ip), vehicle: saline with Tween-80",102 % of control
CC1(N)COP(=O)(NC2CCCC2)OC1 (centres undefined),T/C,[16],100 % of control
same,T/C,[17],105 % of control
same,T/C,[14],91 % of control
CC(=O)OC1C(C[N+](=O)[O-])OC(n2cnc3c(NC(=O)c4ccccc4)ncnc32)C(OC(C)=O)C1OC(C)=O (centres undefined),T/C,"dose: 50.0 mg/kg/injection, schedule: Q04DX002 (ip), vehicle: saline",102 % of control
same,T/C,"dose: 100.0 mg/kg/injection, schedule: Q04DX002 (ip), vehicle: saline",100 % of control
same,T/C,"dose: 200.0 mg/kg/injection, schedule: Q04DX002 (ip), vehicle: saline",121 % of control
O=C(O)C(=O)Cc1ccc(O)cc1,T/C,[5],105 % of control
same,T/C,[6],96 % of control
same,T/C,[15],91 % of control
same,T/C,[7],100 % of control
O=C1C=CC(=O)C2=C1C1c3ccccc3C2c2ccccc21,T/C,[18],95 % of control
same,T/C,"dose: 100.0 mg/kg/injection, schedule: Q04DX002 (ip), vehicle: saline with Tween-80",95 % of control and 98 % of control
same,T/C,"dose: 200.0 mg/kg/injection, schedule: Q04DX002 (ip), vehicle: saline with Tween-80",92 % of control
same,T/C,"dose: 400.0 mg/kg/injection, schedule: Q04DX002 (ip), vehicle: saline with Tween-80",114 % of control
O=C(CCCN1CCC(O)CC1)c1ccc(N2CC=C(c3ccccc3)CC2)cc1,T/C,[12],104 % of control
same,T/C,[13],100 % of control
NC(N)=N/N=C/c1cc([N+](=O)[O-])ccc1O,T/C,"dose: 15.0 mg/kg/injection, schedule: Q01DX Z (ip), vehicle: saline",120 % of control
same,T/C,"dose: 30.0 mg/kg/injection, schedule: Q01DX Z (ip), vehicle: saline",98 % of control
same,T/C,"dose: 60.0 mg/kg/injection, schedule: Q01DX Z (ip), vehicle: saline",98 % of control
same,T/C,"dose: 60.0 mg/kg/injection, schedule: Q01DX Z (oral), vehicle: saline",100 % of control
same,T/C,"dose: 120.0 mg/kg/injection, schedule: Q01DX Z (ip), vehicle: saline",96 % of control
same,T/C,"dose: 120.0 mg/kg/injection, schedule: Q01DX Z (oral), vehicle: saline",96 % of control
CCOC(=O)NC1CC1,T/C,[16],93 % of control
same,T/C,[17],95 % of control
same,T/C,[14],101 % of control
O=C1C(=O)c2ccccc2C(O)=C1c1ccc2ccccc2c1,T/C,[5],96 % of control
same,T/C,[6],96 % of control
same,T/C,[15],91 % of control
same,T/C,[7],96 % of control
c1ccc(N=C(Nc2ccccc2)Nc2ccccc2)cc1,T/C,"dose: 25.0 mg/kg/injection, schedule: Q01DX009 (ip), vehicle: Klucel (hydroxypropylcellulose) (HPC)",94 % of control
same,T/C,"dose: 25.0 mg/kg/injection, schedule: Q04DX002 (ip), vehicle: Klucel (hydroxypropylcellulose) (HPC)",114 % of control
same,T/C,[8],94 % of control
same,T/C,"dose: 50.0 mg/kg/injection, schedule: Q04DX002 (ip), vehicle: Klucel (hydroxypropylcellulose) (HPC)",114 % of control
same,T/C,[1],90 % of control
same,T/C,[12],96 % of control and 98 % of control
C=CCOc1ccc(OCC=C)nn1,T/C,[9],104 % of control
same,T/C,[10],97 % of control
same,T/C,[11],101 % of control
CCC1CN1P1(=O)OCC(CC)([N+](=O)[O-])CO1 (centres undefined),T/C,[6],90 % of control
same,T/C,[15],101 % of control
same,T/C,[7],97 % of control
